This passage reports inhibition, pest or weed control and chromatographic logP results from patent US12552748B2, “Pyridine (thio)amides as fungicidal compounds” (Bayer Aktiengesellschaft, priority 2020, dated 2026).

Broadly, the inhibition is the change of the read-out against control, counted positive when it falls. As usually defined, the chromatographic logP is lipophilicity estimated from chromatographic retention. A lower chromatographic logP goes with a more hydrophilic compound.

In one series the test system is Alternaria alternata. The series is described as follows: Alternaria alternata in vitro cell test. Type of series: cell-based. Conditions: 120 h, 20 ppm of active ingredient, liquid culture with spores, 5 days incubation, spectrometric measurement of mycelium growth, read-out: efficacy (inhibition of fungal growth). The protocol:
(§1) B-6. Alternaria alternata In Vitro Cell Test • Solvent: DMSO • Culture medium: 14.6 g anhydrous D-glucose (VWR), 7.1 g Mycological Peptone (Oxoid), 1.4 g granulated Yeast Extract (Merck), QSP 1 liter • Inoculum: spores suspension Fungicides were solubilized in DMSO and the solution used to prepare the required range of concentrations. […] A spore suspension of A. alternata was prepared and diluted to the desired spore density. Fungicides were evaluated for their ability to inhibit spore germination and mycelium growth in liquid culture assay. The compounds were added in the desired concentration to the culture medium with spores. After 5 days incubation, fungi-toxicity of compounds was determined by spectrometric measurement of mycelium growth. Inhibition of fungal growth was determined by comparing the absorbance values in wells containing the fungicides with the absorbance in control wells without fungicides.

For another series, the system named is Botrytis cinerea. Put plainly: In vivo preventive test on Botrytis cinerea (grey mould). The settings on record: 500 ppm of active ingredient, preventive spray on gherkin or cabbage, evaluated 4 to 5 days after inoculation, 0% = control plants, 100% = no disease, read-out: efficacy. As for the experimental part: B-2. In Vivo Preventive Test on Botrytis cinerea (Grey Mould [table] The active ingredients were made soluble and homogenized in a mixture of Dimethyl sulfoxide/Acetone/Tween® 80 and then diluted in water to the desired concentration. The young plants of gherkin or cabbage were treated by spraying the active ingredient prepared as described above. Control plants were treated only with an aqueous solution of Acetone/Dimethyl sulfoxide/Tween® 80. After 24 hours, the plants were contaminated by spraying the leaves with an aqueous suspension of Botrytis cinerea spores.

Another series is described as follows: physchem. Type of series: physicochemical. Summed up:
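Reversed-phase HPLC per EEC directive 79/831 Annex V.A8, calibrated with straight-chain alkan-2-ones (C3–C16) of known Log P via linear interpolation of retention times. Lambda-max from UV spectra 200–400 nm at chromatographic peaks.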

A further series deals with Pyricularia oryzae. The series is described as follows: microbe, parasite or virus in culture. Type of series: cell-based. The settings on record: 120 h, read-out: efficacy (inhibition of fungal growth).
Series [1] relates to Colletotrichum lindemuthianum. The series is described as follows: Colletotrichum lindemuthianum in vitro cell test. It is filed as cell-based. Conditions: 144 h, read-out: efficacy (inhibition of fungal growth). As for the experimental part: B-8. Colletotrichum lindemuthianum In Vitro Cell Test
• Solvent: DMSO • Culture medium: 14.6 g anhydrous D-glucose (VWR), 7.1 g Mycological Peptone (Oxoid), 1.4 g granulated Yeast Extract (Merck), QSP 1 liter • Inoculum: spores suspension
Fungicides were solubilized in DMSO and the solution used to prepare the required range of concentrations. The final concentration of DMSO used in the assay was ≤1%.
A spore suspension of C. lindemuthianum was prepared and diluted to the desired spore density.
Fungicides were evaluated for their ability to inhibit spores germination and mycelium growth in liquid culture assay. The compounds were added in the desired concentration to the culture medium with spores. After 6 days incubation, fungi-toxicity of compounds was determined by spectrometric measurement of mycelium growth. Inhibition of fungal growth was determined by comparing the absorbance values in wells containing the fungicides with the absorbance in control wells without fungicides.

For a further series, the system named is Sphaerotheca fuliginea. Put plainly: In vivo preventive test on Sphaerotheca fuliginea (powdery mildew on cucurbits). The settings on record: Podosphaera fuliginea, 192 h; 500 ppm of active ingredient; preventive spray on gherkin; evaluated 8 days after inoculation; 0% = control plants, 100% = no disease; read-out: efficacy. The protocol: B-4. In Vivo Preventive Test on Sphaerotheca fuliginea (Powdery Mildew on Cucurbits [table] The active ingredients were made soluble and homogenized in a mixture of Dimethyl sulfoxide/Acetone/Tween® 80 and then diluted in water to the desired concentration. The young plants of gherkin were treated by spraying the active ingredient prepared as described above. Control plants were treated only with an aqueous solution of Acetone/Dimethyl sulfoxide/Tween® 80. After 24 hours, the plants were contaminated by spraying the leaves with an aqueous suspension of Sphaerotheca fuliginea spores.

The next series concerns Pyrenophora teres. Put plainly: Pyrenophora teres in vitro cell test. Conditions: 144 h, 20 ppm of active ingredient, liquid culture with spores, 6 days incubation, spectrometric measurement of mycelium growth, read-out: efficacy (inhibition of fungal growth). Type of series: cell-based. The protocol: as §1, with “B-9. Pyrenophora Teres In” for “B-6. Alternaria alternata In”, “Inoculum: spore” for “Inoculum: spores”, “of P. teres” for “of A. alternata”, “After 6” for “After 5”

On to `Cc1ccc(C(F)(F)CNC(=O)c2c(Oc3cccc(C(F)(F)F)c3)cnc(Cl)c2C)c(C)c1` [Compound I-019, 2-chloro-N-[2-(2,4-dimethylphenyl)-2,2-difluoro-ethyl]-3-methyl-5-[3-(trifluoromethyl)phenoxy]pyridine-4-carboxamide], for which the inhibition at 20 ppm (in the series with Alternaria alternata; with Pyricularia oryzae; in series [1]) was 90 to 100% in each case. The pest or weed control at 500 ppm with Botrytis cinerea and in the series on Sphaerotheca fuliginea was 90 to 100% throughout. Also, the chromatographic logP in the series “physchem” was determined as 4.64.

In the case of `CC(=O)c1cc(C(=O)NCCc2ccc(C)cc2C)c(Oc2cccc(C(F)(F)F)c2)cn1` [Compound I-087, 2-acetyl-N-[2-(2,4-dimethylphenyl)ethyl]-5-[3-(trifluoromethyl)phenoxy]pyridine-4-carboxamide], the inhibition at 20 ppm is 90 to 100% with Alternaria alternata, 80 to 89% in the series with Pyricularia oryzae and 80 to 89% in series [1]. Besides, the pest or weed control at 500 ppm lay in the range of 90 to 100% in the series with Botrytis cinerea and 80 to 89% in the series on Sphaerotheca fuliginea. Further, the chromatographic logP in “physchem” was 4.47.

Take `O=C(NCC(F)(F)c1ccc(C2CCCC2)cc1Cl)c1cc(Cl)ncc1Oc1cccc(C(F)F)c1` [Compound I-124, 2-chloro-N-[2-(2-chloro-4-cyclopentyl-phenyl)-2,2-difluoro-ethyl]-5-[3-(difluoromethyl)phenoxy]pyridine-4-carboxamide]: in the series with Pyrenophora teres, the inhibition at 20 ppm fell in the range of 90 to 100%. The same compound returned a chromatographic logP in the series “physchem” of 5.5.

As for `Cc1ccc(CCNC(=O)c2cc(Cl)ncc2Oc2ccc3c(c2)OC(F)(F)O3)c(C)c1` [Compound I-140, 2-chloro-5-[(2,2-difluoro-1,3-benzodioxol-5-yl)oxy]-N-[2-(2,4-dimethylphenyl)ethyl]pyridine-4-carboxamide], the pest or weed control at 500 ppm in the series on Botrytis cinerea was in the range of 70 to 79%; in the series with Sphaerotheca fuliginea it was 90 to 100%. In addition, in the series with Pyrenophora teres, the inhibition at 20 ppm was 90 to 100%. Also, in “physchem”, the chromatographic logP was 4.82.

Take `Cc1ccc(C(F)(F)CNC(=O)c2c(Oc3cccc(C(F)(F)F)c3)cnc(Cl)c2-n2cccn2)c(C)c1` [Compound I-167, 2-chloro-N-[2-(2,4-dimethylphenyl)-2,2-difluoroethyl]-3-(1H-pyrazol-1-yl)-5-[3-(trifluoromethyl)phenoxy]pyridine-4-carboxamide]: the inhibition at 20 ppm with Alternaria alternata fell in the range of 90 to 100%; with Pyrenophora teres it was 90 to 100%; in the series with Pyricularia oryzae, 80 to 89%; in series [1], 80 to 89%. Also, the pest or weed control at 500 ppm with Botrytis cinerea and in the series on Sphaerotheca fuliginea was 90 to 100% each time. In the series “physchem”, this compound came in with a chromatographic logP of 4.51.
